According to patent US11505556B2, “Halogenated derivatives of morphinans and uses thereof” (Xalud Therapeutics, Inc., priority 2017, dated 2022):

Assays:
[1] = system: CCI neuropathic pain (mechanical allodynia); experiment: Rat CCI model, oral and subcutaneous phases (Study R042); assay type: in vivo
Description: Rat chronic constriction injury model-Oral and subcutaneous (+)-NTX and XT-203: An efficacy study was conducted in the rat chronic constriction injury (CCI) model (Study R042). The study design comprised two phases. A five-day period of oral (PO) dosing and behavioral testing was followed by a five-day period of subcutaneous (SC) dosing, with a two-day washout period between these periods. Dosing on each day was performed three times a day (TID). Behavioral testing for mechanical allodynia was performed on the first and fifth days of dosing, at three times on those days: before the first dose of the day, 30 minutes after the first dose of the day, and 30 minutes after the second dose of the day. Thus, day 5 testing is designated as pre5.1 (before the first dose of the day), 5.1 (fifth day, after first dose) or 5.2 (fifth day, after second dose). On day 5 of the subcutaneous dosing phase, a second testing period was introduced 60 minutes after the second dose. (+)-NTX (6, 18, and 60 mg/kg) and XT-203. Mechanical allodynia was tested manually, using the Chaplan up-down testing method. The results are shown in FIGS. 10A and 10B, with the oral (PO) phase presented as the first pair of graphs. After the two-day washout, the subcutaneous (SC) phase was carried out with the results shown in the graphs at FIGS. 10C and 10D.
The CCI model was well established in this study, with allodynic response thresholds between 2 and 3 grams (presurgical baseline thresholds at 15 g, not shown). […] This is especially remarkable given the extremely rapid metabolism and pharmacokinetics of (+)-NTX (see FIG. 9). Here, the dampening of efficacy due to lack of significant amounts of parent compound is particularly evident. Thus, the appropriate dose-ranging conditions in animal models should reflect (+)-NTX serum levels during efficacy testing, to match pharmacokinetics with pharmacodynamics. […] Efficacy is only observed after the first dose on day 5. Thus, changes designed to improve compound stability do provide improved efficacy.

[2] = system: hind paw incision pain; experiment: Rat hind paw incision pain model, SC dosing, von Frey testing (Example 2); assay type: in vivo; settings: for effect on pain threshold (von Frey), day 1 and day 5 dosing: SC 3x per day for 5 days, XT-203 28 or 30 mg/kg, (+)-NTX data not shown
Description: Rats were housed in temperature (23+/−3° C.) and light (12 hour:12 hour, light:dark cycle; lights on at 0700) controlled rooms with standard rodent chow and water available ad libitum.
Von Frey Test for Mechanical Allodynia: Rats received at least three 60 min habituations to the test environment prior to behavioral testing. Response thresholds to calibrated light pressure stimuli applied to the plantar surface of the paws was measured using the von Frey test. […] All testing was conducted blind with respect to group assignment. The behavioral responses were used to calculate the threshold, by fitting a Gaussian integral psychometric function using a maximum-likelihood fitting method, as described in detail previously (Id.). Allodynia was assessed pre- and post-drug delivery.
Behavior testing for pain responses by von Frey testing was used to establish pain thresholds in the affected hind paw. Because dosage was 3×/day, behavior testing was performed after the first and second dose of day 1 dosing (1.1, 1.2) and after the first and second dose of day 5 dosing (5.1, 5.2). Testing sessions were performed 30 minutes after the dose was administered.

[3] = system: off-target screening panel; experiment: Off-target inhibition screening (whole panel); settings: 10 μM test concentration, hit = inhibition at or above the 50% level
Text: In addition to the animal studies presented above in Examples 1-9, the results of in vitro testing of several of the compounds (i.e., XT-203, XT-204, and XT-206 through XT-217) are shown in Table 5 and Table 6. […]. Nine additional compounds had two or fewer off-target hits in the screening. […] These compounds spanned all of the tested N-modification classes. […]. Thus, the medicinal chemistry approach taken in this series of fluorinated compounds can yield low off-target activity and longer metabolic lifetime while preserving TLR4 antagonism. It is appreciated that further development of compounds in this class, using techniques known to those skilled in the art, may yield additional compounds with desirable pharmacologic and toxicologic characteristics.

[4] = system: surgical pain (paw incision), paw withdrawal threshold; experiment: Mouse paw incision model, morphine potentiation
Description: Manual testing with von Frey hairs was performed at the times indicated in the graphs. The animals were placed in individual Perspex boxes on a raised metal mesh for at least 40 min before the test. A series of graduated von Frey hairs (0.07, 0.16, 0.4, 0.6, and 1.0 g) were applied to the plantar surface of the left paw, in sequence. Each von Frey hair was applied 10 times on a one-sec-on-one-sec-off protocol, with each hair slightly bent. A paw withdrawal upon this hind-paw stimulation for a given von Frey hair registering 5 responses out of 10 trials was recorded the paw withdrawal threshold (PWT). A baseline PWT was determined each day for 3 days before surgery. […] In addition, the PWT was determined before dosing and 1, 2, and 4 hours after dosing.
In both cases, morphine was dosed at 1 mg/kg IP.
Each group had n=10 mice.

[5] = system: bone fracture pain, paw withdrawal threshold; experiment: Mouse bone fracture model, morphine potentiation
Description: Male adult C57BL6 mice, 8-10 weeks old, were anaesthetized with isoflurane mixed with oxygen throughout the surgical procedure. Animals were placed on a thermo-blanket temperature control system. The left knee area was disinfected with povidone/iodine-soaked cotton. A 0.5 cm incision was made on the knee, exposing the front area of the knee. A 27-gauge sterile needle was inserted into the tibial bone medullar canal to secure the fractured bone. The left tibia bone was gently broken using a pair of cushioned pliers. A single dose of antibiotic (Amoxipen 100 mg/kg, IP) was administered for prevention of infection after surgery. The animal was placed in a temperature-controlled recovery chamber until fully awake before being placed in a plastic cage bedded with clean, soft sawdust, with food and water easily accessible. The condition of the animals was closely monitored and recorded. All compounds, dissolved in normal saline, were dosed intraperitoneally in a volume of 5 ml/kg. PWT testing, as described above, was performed at 1, 2, and 4 hours.
In both cases, morphine was dosed at 2 mg/kg IP.

[6] = system: TLR4 (LPS-stimulated NO production, BV-2 mouse microglia cell line); experiment: NO assay: inhibition of LPS-induced NO production in BV-2 microglia (iNOS cellular); assay type: cell-based; settings: for inhibition of NO production from LPS-stimulated BV2 cells: FIGS. 8B to 8D
Text: NO assay: Microglia are the resident cells of the innate immune system in the central nervous system, and TLR4 is primarily expressed by microglia rather than astrocytes or neurons in the CNS. Given this expression profile, the BV-2 mouse microglia cell line was used as the model system of microglia, as these cells recapitulate many of the responses of primary microglia with high fidelity. TLR4 activation induces the downstream production of the inflammatory factor NO, which contributes to the development of neuropathic pain and drug addiction. BV-2 murine microglia were grown in supplemented DMEM (including 10% FBS, 50 unit mL^−1 penicillin, 50 μg·mL^−1 streptomycin). BV-2 cells were detached from the flask by trypsin digestion when ˜80% confluence was reached. Cells were seeded at a density of 4×10^4 cells per well in 96-well plates. After overnight incubation, media was aspirated and changed to DMEM media without FBS. Cells were then treated with LPS (200 ng/ml) and different concentrations of the testing compounds. After 24 h treatment, 100 μL of supernatant media was removed after cells were treated for 24 h and added to flat black 96-well microfluor plates (Thermo Scientific, MA, USA). Subsequently, 10 μL of 2, 3-diaminonaphthalene (0.05 mg·mL^−1 in 0.62 M HCl) was added to each well and incubated for 15 min. The reaction was quenched by addition of 5 μL of 3 M NaOH and the plate was read on a Beckman Coulter DTX880 reader (Fullerton, Calif., USA) with excitation at 360 nm and emission at 430 nm.
N chain NTX: This experimentation involved an in vitro assay where mouse BV2 cells were treated with LPS, which results in the release of nitric oxide (NO). Blockade of TLR4 activity results in reduced NO production. Therefore, IC50 values were determined for test compounds that antagonize TLR4 activity. A series of test compounds were prepared, with different N-alkyl chains replacing the cyclopropyl methyl found in naltrexone. Cell viability was also measured by a standard assay, e.g., measurement of the release of cytoplasm-resident enzymes in the tissue culture supernatant or media to detect cell loss/lysis/rupture. A dose-inhibition curve was generated by testing the TLR4 antagonist compound for the ability to block LPS-stimulated iNOs induction. In FIG. 7, the inhibition levels across a range of doses are graphed, along with a regression curve. The IC50 value—50% inhibition level—is also provided, graphed against the length of the alkyl chain. Note that with longer N-alkyl chain the IC50 was reduced, although cell viability became problematic.
FIGS. 8B to 8D show the results of the inhibition of NO production from LPS-stimulated BV2 cells using the assay described above.

Compound | efficacy on mechanical allodynia, medium and high doses ([1]; (+)-NTX 18 and 60 mg/kg TID, PO d1, SC d1, SC d5 panels) | effect on pain threshold (von Frey), day 1 and day 5 dosing [2] | off-target hits in the screening [3] | off-target hits in the screening ([3]; listed as XT-202) | PWT of the ipsilateral hind-paw, 2 hours post-dosing ([4]; (+)-NTX 18 mg/kg IP alone) | PWT of the ipsilateral hind-paw, 4 hours post-dosing ([4]; (+)-NTX 18 mg/kg IP alone) | PWT of the ipsilateral hind-paw, 1 hour post-dosing ([4]; (+)-NTX 18 mg/kg IP alone, baseline 0.11±0.015 g) | adverse effects during observation [5] | inhibition of NO production from LPS-stimulated BV2 cells [6] | IC50 ([6]; LPS (200 ng/ml), 24 h, BV-2 cells, Table 3) | IC50 ([6]; Table 6, unit inferred, footnote: Indicator of TL4 antagonism) | reversal of allodynia at pre5.1 (before first dose of day 5) ([1]; XT-203 18 mg/kg SC TID) | efficacy on mechanical allodynia, subcutaneous, day 5 ([1]; XT-203 18 mg/kg SC TID, after the first dose on day 5) | effect during day 5 testing compared with morphine 3 mg/kg ([2]; XT-203 28 or 30 mg/kg SC 3x per day) | PWT, 2 hours after dosing ([4]; XT-203 10 mg/kg IP alone) | PWT, 4 hours after dosing ([4]; XT-203 10 mg/kg IP alone) | PWT, 1 hour after dosing ([4]; XT-203 10 mg/kg IP alone, 0.11±0.015 g before dosing) | IC50 ([6]; Mus musculus, Microglia, Table 6, unit inferred, footnote: Indicator of TL4 antagonism) | IC50 ([6]; Mus musculus, LPS (200 ng/ml), 24 h, BV-2 cells, Table 3)
O=C1CC[C@]2(O)[C@@H]3Cc4ccc(O)c5c4[C@]2(CCN3CC2CC2)[C@@H]1O5 [(+)-naltrexone, reference compound] | some efficacy | not effective | none | NONE | 0.22 ± 0.050 g | 0.14 ± 0.32 g | 0.31 ± 0.056 g | No significant adverse effects | good viability and inhibition | 50 to 60 µM | 50 to 60 µM |  |  |  |  |  |  |  | 
COc1ccc2c3c1O[C@@H]1C(F)CCC4[C@H](C2)N(CC2CC2)CC[C@]341 (some centres unmarked) [XT-203] |  | substantial effects | activity at two targets |  |  |  |  | No significant adverse effects | good viability and inhibition |  |  | does not show reversal of allodynia | some significant efficacy | matching the response to morphine | 0.25 ± 0.059 g | 0.09 ± 0.012 g | 0.32 ± 0.058 g | 30 µM | 30 to 50 µM
